Data published in patent US20190070208A1, “USE OF TRIACETYL-3-HYDROXYPHENYLADENOSINE IN PREPARING PHARMACEUTICALS FOR TREATMENT OF ATHEROSCLEROSIS” (priority 2016, published 2019).
Several values for one entry are separate records, joined by “and”; a condition that tells them apart may be missing. Equal entries are not always repeated.

How the values were obtained:
Format in all cases: in vivo
Parameters in all cases: unit not given here
[1] = test system: circulating blood mononuclear cells; test: Circulating blood mononuclear cells of high-fat-fed Syrian golden hamsters (whole blood cell analyzer); conditions: gavage twice a day, high-fat feedstuff hamsters, individual animal values (n=13)
Protocol: […] Syrian golden hamsters (LVG hamsters, introduced from Charles River Laboratories) aged 6-8 weeks, weighing 90-120 g, male, SPF grade and purchased from Beijing Vital River Laboratory Animal Technology Co., Ltd.
After 7 days of adaptive feeding, animals were randomly divided into a normal control group (n=13), a high-fat feedstuff group (n=13), an IMMH007 low-dose group (50 mg/kg, n=13), an IMMH007 medium-dose group (100 mg/kg, n=13), and an IMMH007 high-dose group (200 mg/kg, n=13), and they were administered twice a day by gavage. The animals were fed in the Second Department of Animal Experiment Center of the Institute of Materia Medica (IMM) at Chinese Academy of Medical Sciences (CAMS); the feeding condition was SPF grade, the temperature was 21±2 DEG C, relative humidity was 50±5%, lighting cycle was 12/12, and 5 per cage. The normal group was fed with normal basal feedstuff, and the high-fat feedstuff group was fed with high fat feedstuff (79.8% of basal feedstuff, 20% of lard, and 0.2% of cholesterol), and the animals were free to take food and drink. The feedstuff was produced by Beijing HFK Bioscience Co., Ltd.
The animals were fasted for 12 hours, and about 200 ul of blood was taken from the canthus of each eye, the blood was dissolved in 30ul of EDTA-2K anticoagulant (20g/L, prepared with normal saline), mixed slightly to avoid coagulation, and the whole blood cells were analyzed by a whole blood cell analyzer.

[2] = test system: circulating blood inflammatory mononuclear cells (Ly6C^hi); test: Circulating blood inflammatory (Ly6Chi) mononuclear cells of high-fat-fed apoE-/- mice (flow cytometry); conditions: gavage once a day, high-fat diet apoE-/- mice
Protocol: (§1) ApoE-/-mice (C57BL background), 5-7 weeks old, body weight 18-22 g, male, SPF grade; Purchased from Beijing institute of Laboratory Animal Science.
(§2) After 7 days of adaptive feeding, animals were randomly divided into a high-fat feedstuff group (n=7), an MMH007 low-dose group (50 mg/kg, n=7), an IMMH007 medium-dose group (100 mg/kg, n=7), and an IMMH007 high-dose group (200 mg/kg, n=9), and they were administered once a day by gavage. The animals were fed in the Second Department of Animal Experiment Center of the Institute of Materia Medica (IMM) at Chinese Academy of Medical Sciences (CAMS); the feeding condition was SPF grade, the temperature was 21±2 DEG C, relative humidity was 50±5%, lighting cycle was 12/12, and 5 per cage. All groups were given high-fat diet (70% of basal diet plus 20% of lard and 0.2% of cholesterol) and the animals were free to take food and drink. The feedstuff was produced by Beijing HFK Bioscience Co., Ltd. Body weight was recorded once every week during the experiment.
(§3) The animals were fasted for 12 hours and the following cells were extracted:
(§4) Recirculating blood cells: 50 ul of blood was taken by cardiocentesis, placed in 450 ul of heparin anticoagulant, 1 ml of red blood cell lysis buffer was added, lysed for 10 minutes, centrifuged at 1800 r for 3 min, the supernatant was aspirated, and 100 ul of PBS suspension cells were obtained for subsequent use. The mouse was taken blood from the angular vein to be dead and serum was separated and stored at −80 DEG C.
(§5) Antibodies were added to the above blood cells:
(§6) 3 ul of CD90-PE, 3 ul of B220-PE, 3 ul of CD49b-PE, 3 ul of NK1.1-PE, 3 ul of Ly-6G-PE, 6 ul of CD11b-percp, and 3 ul of Ly-6C-FITC, a single positive tube and a blank control tube were provided, they were incubated with smoothie for 30 min, washed 3 times with PBS, and re-selected cells with 400 ul of PBS, filtered, and flow cytometry was carried out. The mononuclear cells were identified as CD11b^hiCD90^loB220^loCD49b^loNK1.1^loLy-6G^lo cells. […]

[3] = test system: circulating blood mononuclear cells; test: Circulating blood mononuclear cells of high-fat-fed apoE-/- mice (flow cytometry); conditions: gavage once a day, high-fat diet apoE-/- mice
Protocol: as §1, §2, §3, §4, §5, §6

[4] = IMM-H007 50 mg/kg, individual animal values (n=7), 50 mg/kg
[5] = IMM-H007 100 mg/kg, individual animal values (n=7), 100 mg/kg
[6] = IMM-H007 200 mg/kg, individual animal values (n=9), 200 mg/kg

With `CC(=O)OCC1OC(n2cnc3c(Nc4cccc(O)c4)ncnc32)C(OC(C)=O)C1OC(C)=O` (stereo not drawn) [IMM-H007, Triacetyl-3-Hydroxyphenyladenosine] the “circulating blood mononuclear cells” value ([1]; IMM-H007 50 mg/kg, 50 mg/kg) was 6.63 and 5.31 and 7.58 and 11.2 and 10.1 and 11 and 10.4 and 9.08 and 6.95 and 8.24 and 9.21 and 6.5 and 8.91, the “circulating blood mononuclear cells” value ([1]; IMM-H007 100 mg/kg, 100 mg/kg) was 6.23 and 4.18 and 3.87 and 6.05 and 6.02 and 7.99 and 6.79 and 9.61 and 6.42 and 10.4 and 6.8 and 7.54 and 4.56 and the “circulating blood mononuclear cells” value ([1]; IMM-H007 200 mg/kg, 200 mg/kg) was 4.42 and 6.33 and 9.94 and 9.51 and 10.3 (2×) and 6.28 and 9.61 and 9.85 and 10.8 and 8.52 and 9.23 and 5.7. The “circulating blood inflammatory mononuclear cells” value [2, 4] was 0.33 and 0.86 and 0.18 and 0.23 and 0.89 and 0.16 and 0.49, the “circulating blood inflammatory mononuclear cells” value [2, 5] was 0.31 and 0.19 and 0.32 and 0.29 and 0.30 and 0.89 and 0.26 and the “circulating blood inflammatory mononuclear cells” value [2, 6] was 0.19 and 0.35 and 0.17 and 0.20 and 0.30 and 0.13 and 0.15 and 0.28 and 0.21. For the same compound, the “circulating blood mononuclear cells” value [3, 4] was 0.54 and 0.49 (2×) and 1.23 and 0.66 and 0.63 and 0.26, the “circulating blood mononuclear cells” value [3, 5] was 0.79 and 0.48 and 0.30 and 0.14 and 0.29 and 0.27 and 0.25 and the “circulating blood mononuclear cells” value [3, 6] was 0.18 (2×) and 0.69 and 0.28 and 0.24 and 0.27 and 0.23 and 0.21 and 0.10.
